Experimental data reported in patent publication US20090311344A1, “Dosing Regimen” (priority 2008, published 2009).

Assay: Multiple dose study in cancer subjects: treatment-emergent (serious) adverse events
Description: 46 subjects with cancer receiving platinum-based therapies were enrolled into 3 cohorts (N=16 in Cohort 1, 14 in Cohort 2, and 16 in Cohort 3). The subjects received the TPO mimetic peptide compound or placebo within 2 hours prior to the platinum-based chemotherapy on Day 1 of the first 2 cycles with a 21-day interval between each cycle. In addition to the Day 1 administration, gemcitabine administration was permitted on Day 8 of each cycle. Other chemotherapy medications were limited to dosing on Day 1 of each cycle only. Subjects were followed up for a total of 4 cycles of chemotherapy. Chemotherapy regimen continued beyond the first 4 cycles as per standard of care therapy. In the first cohort, 12 subjects received 1.5 μg/kg the TPO mimetic peptide compound and 4 subjects received placebo. In the second cohort 10 subjects received 3.0 μg/kg the TPO mimetic peptide compound and 4 subjects received placebo. In the third cohort, 12 subjects received 2.25 μg/kg the TPO mimetic peptide compound and 4 subjects received placebo. […] Therefore, a third cohort at a lower dose (2.25 μg/kg) was added to collect additional safety, tolerability, PD, and PK data.

Substance: Methoxypolyethyleneglycol20000-propionyl-L-Isoleucyl-L-Glutamyl-Glycyl-L-Prolyl-L-Threonyl-L-Leucyl-L-Arginyl-L-Glutaminyl-L-2-Naphthylalanyl-L-Leucyl-L-Alanyl-L-Alanyl-L-Arginyl-Sarcosyl-Ne-(methoxypolyethyleneglycol20000-propionyl-L-Isoleucyl-L-Glutamyl-Glycyl-L-Prolyl-L-Threonyl-L-Leucyl-L-Arginyl-L-Glutaminyl-L-2-Naphthylalanyl-L-Leucyl-L-Alanyl-L-Alanyl-L-Arginyl-Sarcosyl-)-Lysinamide [TPO mimetic peptide compound]
- Adverse event: Musculoskeletal and connective tissue disorders (2.25 ug/kg, n of N = 12): 1
- Adverse event: Nausea (2.25 ug/kg, n of N = 12): 2
- Adverse event: Neoplasms benign, malignant and unspecified (incl cysts and polyps) (2.25 ug/kg, n of N = 12): 0
- Adverse event: Nervous system disorders (2.25 ug/kg, n of N = 12): 3
- Adverse event: Neuropathy peripheral (2.25 ug/kg, n of N = 12): 0
- Adverse event: Neutropenia (2.25 ug/kg, n of N = 12): 4
- Adverse event: Oedema (2.25 ug/kg, n of N = 12): 1
- Adverse event: Oedema peripheral (2.25 ug/kg, n of N = 12): 0
- Adverse event: Pain (2.25 ug/kg, n of N = 12): 0
- Adverse event: Pain in extremity (2.25 ug/kg, n of N = 12): 1
- Adverse event: Paraesthesia (2.25 ug/kg, n of N = 12): 0
- Adverse event: Peripheral motor neuropathy (2.25 ug/kg, n of N = 12): 0
- Adverse event: Peripheral sensory neuropathy (2.25 ug/kg, n of N = 12): 0
- Adverse event: Platelet count decreased (2.25 ug/kg, n of N = 12): 0
- Adverse event: Psychiatric disorders (2.25 ug/kg, n of N = 12): 2
- Adverse event: Pyrexia (2.25 ug/kg, n of N = 12): 3
- Adverse event: Rash (2.25 ug/kg, n of N = 12): 0
- Adverse event: Renal and urinary disorders (2.25 ug/kg, n of N = 12): 1
- Adverse event: Respiratory failure (2.25 ug/kg, n of N = 12): 0
- Adverse event: Respiratory, thoracic and mediastinal disorders (2.25 ug/kg, n of N = 12): 3
- Adverse event: Skin and subcutaneous tissue disorders (2.25 ug/kg, n of N = 12): 3
- Adverse event: Stomatitis (2.25 ug/kg, n of N = 12): 0
- Adverse event: Tachycardia (2.25 ug/kg, n of N = 12): 0
- Adverse event: Thrombocythaemia (2.25 ug/kg, n of N = 12): 0
- Adverse event: Thrombocytopenia (2.25 ug/kg, n of N = 12): 0
- Adverse event: Tinnitus (2.25 ug/kg, n of N = 12): 0
- Adverse event: Vascular disorders (2.25 ug/kg, n of N = 12): 2
- Adverse event: Vomiting (2.25 ug/kg, n of N = 12): 6
- Adverse event: Weight decreased (2.25 ug/kg, n of N = 12): 0
- Serious adverse event: Abdominal pain (2.25 ug/kg, n of N = 12): 0
- Serious adverse event: Acute myocardial infarction (2.25 ug/kg, n of N = 12): 0
- Serious adverse event: Anorexia (2.25 ug/kg, n of N = 12): 0
- Serious adverse event: Atrial fibrillation (2.25 ug/kg, n of N = 12): 0
- Serious adverse event: Blood and lymphatic system disorders (2.25 ug/kg, n of N = 12): 1
- Serious adverse event: Blood creatinine increased (2.25 ug/kg, n of N = 12): 1
- Serious adverse event: Cardiac disorders (2.25 ug/kg, n of N = 12): 0
- Serious adverse event: Cardiac failure (2.25 ug/kg, n of N = 12): 0
- Serious adverse event: Dehydration (2.25 ug/kg, n of N = 12): 1
- Serious adverse event: Dyspnoea (2.25 ug/kg, n of N = 12): 1
- Serious adverse event: Fatigue (2.25 ug/kg, n of N = 12): 0
- Serious adverse event: Febrile neutropenia (2.25 ug/kg, n of N = 12): 1
- Serious adverse event: Gastrointestinal disorders (2.25 ug/kg, n of N = 12): 1
- Serious adverse event: General disorders and administration site conditions (2.25 ug/kg, n of N = 12): 0
- Serious adverse event: Hyponatraemia (2.25 ug/kg, n of N = 12): 2
- Serious adverse event: Investigations (2.25 ug/kg, n of N = 12): 1
- Serious adverse event: Lung abscess (2.25 ug/kg, n of N = 12): 0
- Serious adverse event: Metabolism and nutrition disorders (2.25 ug/kg, n of N = 12): 2
- Serious adverse event: Nausea (2.25 ug/kg, n of N = 12): 0
- Serious adverse event: Neutropenia (2.25 ug/kg, n of N = 12): 0
- Serious adverse event: Pain (2.25 ug/kg, n of N = 12): 0
- Serious adverse event: Pyrexia (2.25 ug/kg, n of N = 12): 0
- Serious adverse event: Respiratory failure (2.25 ug/kg, n of N = 12): 0
- Serious adverse event: Respiratory, thoracic and mediastinal disorders (2.25 ug/kg, n of N = 12): 1
- Serious adverse event: Thrombocythaemia (2.25 ug/kg, n of N = 12): 0
- Serious adverse event: Thrombocytopenia (2.25 ug/kg, n of N = 12): 0
- Serious adverse event: Vomiting (2.25 ug/kg, n of N = 12): 1
- Total no. subjects WITH ADVERSE EVENTS (2.25 ug/kg, n of N = 12): 10
- Total no. subjects WITH SERIOUS ADVERSE EVENTS (2.25 ug/kg, n of N = 12): 3
- Adverse event: Abdominal pain (3.0 ug/kg, n of N = 10): 2
- Adverse event: Acute myocardial infarction (3.0 ug/kg, n of N = 10): 0
- Adverse event: Alanine aminotransferase increased (3.0 ug/kg, n of N = 10): 1
- Adverse event: Alopecia (3.0 ug/kg, n of N = 10): 2
- Adverse event: Anemia (3.0 ug/kg, n of N = 10): 1
- Adverse event: Anorexia (3.0 ug/kg, n of N = 10): 2
- Adverse event: Anxiety (3.0 ug/kg, n of N = 10): 0
- Adverse event: Arthralgia (3.0 ug/kg, n of N = 10): 1
- Adverse event: Aspartate aminotransferase increased (3.0 ug/kg, n of N = 10): 1
- Adverse event: Atrial fibrillation (3.0 ug/kg, n of N = 10): 0
- Adverse event: Azotaemia (3.0 ug/kg, n of N = 10): 0
- Adverse event: Blood and lymphatic system disorders (3.0 ug/kg, n of N = 10): 3
- Adverse event: Blood creatinine increased (3.0 ug/kg, n of N = 10): 1
- Adverse event: C-reactive protein increased (3.0 ug/kg, n of N = 10): 1
- Adverse event: Cancer pain (3.0 ug/kg, n of N = 10): 0
- Adverse event: Cardiac disorders (3.0 ug/kg, n of N = 10): 0
- Adverse event: Cardiac failure (3.0 ug/kg, n of N = 10): 0
- Adverse event: Chills (3.0 ug/kg, n of N = 10): 0
- Adverse event: Confusional state (3.0 ug/kg, n of N = 10): 0
- Adverse event: Constipation (3.0 ug/kg, n of N = 10): 4
- Adverse event: Cough (3.0 ug/kg, n of N = 10): 0
- Adverse event: Dehydration (3.0 ug/kg, n of N = 10): 1
- Adverse event: Dermatitis acneiform (3.0 ug/kg, n of N = 10): 0
- Adverse event: Diabetes mellitus non-insulin-dependent (3.0 ug/kg, n of N = 10): 0
- Adverse event: Diarrhea (3.0 ug/kg, n of N = 10): 1
- Adverse event: Dizziness (3.0 ug/kg, n of N = 10): 0
- Adverse event: Dry skin (3.0 ug/kg, n of N = 10): 1
- Adverse event: Dyspepsia (3.0 ug/kg, n of N = 10): 0
- Adverse event: Dyspnoea (3.0 ug/kg, n of N = 10): 0
- Adverse event: Ear and labyrinth disorders (3.0 ug/kg, n of N = 10): 1
- Adverse event: Epistaxis (3.0 ug/kg, n of N = 10): 1
- Adverse event: Eructation (3.0 ug/kg, n of N = 10): 0
